Where “and” joins values, the source holds several entries; their conditions need not be identical. Equal values may be shown once.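 Cells were grown in 96-well plates and exposed to each compound for 48 hours at five concentrations; endpoints were interpolated linearly between bracketing concentrations, or set to the highest concentration if not reached. At the GI50, growth is halved. The concentration for full growth arrest is given as TGI.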
Columns and labels:
Test in all cases: DTP human tumour cell line panel, 48 h
HCC-2998 colon = test system: HCC-2998 colon
A498 renal = test system: A498 renal
SF-295 CNS = test system: SF-295 CNS
SF-268 CNS = test system: SF-268 CNS
IGROV1 ovarian = test system: IGROV1 ovarian
HOP-62 NSCLC = test system: HOP-62 NSCLC
BT-549 breast = test system: BT-549 breast
DMS 273 small cell lung = test system: DMS 273 small cell lung
CCRF-CEM leukemia = test system: CCRF-CEM leukemia
MALME-3M melanoma = test system: MALME-3M melanoma
KM20L2 colon = test system: KM20L2 colon
NCI-H460 lung = test system: NCI-H460 lung
RPMI-8226 leukemia = test system: RPMI-8226 leukemia
EKVX NSCLC = test system: EKVX NSCLC
SK-MEL-28 melanoma = test system: SK-MEL-28 melanoma
TK-10 renal = test system: TK-10 renal
DU-145 prostate = test system: DU-145 prostate
SF-539 CNS = test system: SF-539 CNS
HL-60(TB) leukemia = test system: HL-60(TB) leukemia
U251 CNS = test system: U251 CNS
PC-3 prostate = test system: PC-3 prostate
UO-31 renal = test system: UO-31 renal
HOP-18 NSCLC = test system: HOP-18 NSCLC
OVCAR-4 ovarian = test system: OVCAR-4 ovarian
SK-MEL-2 melanoma = test system: SK-MEL-2 melanoma
T-47D breast = test system: T-47D breast
UACC-62 melanoma = test system: UACC-62 melanoma
KM12 colon = test system: KM12 colon
SNB-78 CNS = test system: SNB-78 CNS
RXF 393 renal = test system: RXF 393 renal
A549 NSCLC = test system: A549 NSCLC
OVCAR-5 ovarian = test system: OVCAR-5 ovarian
K-562 leukemia = test system: K-562 leukemia
MCF7 breast = test system: MCF7 breast
SR leukemia = test system: SR leukemia
RXF-631 renal = test system: RXF-631 renal
OVCAR-8 ovarian = test system: OVCAR-8 ovarian
786-0 renal = test system: 786-0 renal
M14 melanoma = test system: M14 melanoma
XF 498 CNS = test system: XF 498 CNS
M19-MEL melanoma = test system: M19-MEL melanoma
UACC-257 melanoma = test system: UACC-257 melanoma
DLD-1 colon = test system: DLD-1 colon
SNB-75 CNS = test system: SNB-75 CNS
HS 578T breast = test system: HS 578T breast
SW-620 colon = test system: SW-620 colon
NCI-H23 lung = test system: NCI-H23 lung
MDA-N = test system: MDA-N
SNB-19 CNS = test system: SNB-19 CNS
SK-OV-3 ovarian = test system: SK-OV-3 ovarian
COLO 205 colon = test system: COLO 205 colon
HOP-92 NSCLC = test system: HOP-92 NSCLC
NCI/ADR-RES ovarian = test system: NCI/ADR-RES ovarian

Which results are given for `CN1C(=O)CC2(C)c3cc(O)ccc3N(C)C12` (stereo not drawn)?
GI50 (HCC-2998 colon): > 75 µM; TGI (HCC-2998 colon): > 100 µM; GI50 (A498 renal): > 75 µM; TGI (A498 renal): > 75 µM and 68.2 µM; GI50 (SF-295 CNS): 13 µM; TGI (SF-295 CNS): 23.7 µM and 54.9 µM; GI50 (SF-268 CNS): 38.6 µM; TGI (SF-268 CNS): 75 µM and 60.6 µM; TGI (IGROV1 ovarian): 75 µM and 68.8 µM; TGI (HOP-62 NSCLC): 60.7 µM; GI50 (BT-549 breast): 30.3 µM; TGI (BT-549 breast): 75 µM and 30.8 µM; TGI (DMS 273 small cell lung): > 100 µM; GI50 (CCRF-CEM leukemia): 9.66 µM; TGI (CCRF-CEM leukemia): 40.8 µM and 62.7 µM; GI50 (MALME-3M melanoma): > 75 µM; TGI (MALME-3M melanoma): > 75 µM and 93.5 µM; TGI (KM20L2 colon): > 100 µM; GI50 (NCI-H460 lung): 13.9 µM; TGI (NCI-H460 lung): 26 µM and > 82.3 µM; GI50 (RPMI-8226 leukemia): 20.3 µM; TGI (RPMI-8226 leukemia): 64.8 µM and 67.3 µM; GI50 (EKVX NSCLC): > 75 µM; TGI (EKVX NSCLC): > 75 µM and 44.2 µM; GI50 (SK-MEL-28 melanoma): 11.8 µM; TGI (SK-MEL-28 melanoma): 21.9 µM and > 79.2 µM; GI50 (TK-10 renal): > 75 µM; TGI (TK-10 renal): > 100 µM; GI50 (DU-145 prostate): > 75 µM; TGI (DU-145 prostate): > 75 µM; GI50 (SF-539 CNS): 14.5 µM; TGI (SF-539 CNS): 26.9 µM and > 76.5 µM; GI50 (HL-60(TB) leukemia): 14.2 µM; TGI (HL-60(TB) leukemia): 31.5 µM and 70 µM; GI50 (U251 CNS): 14.4 µM; TGI (U251 CNS): 25 µM and 31.2 µM; GI50 (PC-3 prostate): > 75 µM; TGI (PC-3 prostate): > 100 µM; TGI (UO-31 renal): > 90.9 µM; TGI (HOP-18 NSCLC): > 100 µM; TGI (OVCAR-4 ovarian): 10.6 µM; GI50 (SK-MEL-2 melanoma): > 75 µM; TGI (SK-MEL-2 melanoma): > 94.3 µM; GI50 (T-47D breast): > 75 µM; TGI (T-47D breast): > 91.2 µM; TGI (UACC-62 melanoma): 38.6 µM and 45.5 µM; GI50 (KM12 colon): 42.6 µM; TGI (KM12 colon): 75 µM and 42.7 µM; TGI (SNB-78 CNS): > 100 µM; GI50 (RXF 393 renal): 48.4 µM; TGI (RXF 393 renal): 75 µM and 66.5 µM; TGI (A549 NSCLC): 75 µM and > 100 µM; TGI (OVCAR-5 ovarian): 59.6 µM; GI50 (K-562 leukemia): 11.6 µM; TGI (K-562 leukemia): 31.3 µM and 70.8 µM; GI50 (MCF7 breast): 14 µM; TGI (MCF7 breast): 27.8 µM and 35.8 µM; GI50 (SR leukemia): 13.9 µM; TGI (SR leukemia): 45.2 µM and 51.5 µM; TGI (RXF-631 renal): > 100 µM; TGI (OVCAR-8 ovarian): 61.4 µM; GI50 (786-0 renal): 23.8 µM; TGI (786-0 renal): 58.1 µM and 28.6 µM; TGI (M14 melanoma): 44.6 µM; TGI (XF 498 CNS): 33 µM; TGI (M19-MEL melanoma): 46.2 µM; TGI (UACC-257 melanoma): > 85.9 µM; TGI (DLD-1 colon): > 100 µM; GI50 (SNB-75 CNS): > 75 µM; TGI (SNB-75 CNS): > 75 µM and 68.3 µM; GI50 (HS 578T breast): 23.7 µM; TGI (HS 578T breast): 69.3 µM and > 90.2 µM; GI50 (SW-620 colon): 13.9 µM; TGI (SW-620 colon): 28.9 µM and 42.6 µM; GI50 (NCI-H23 lung): 25.7 µM; TGI (NCI-H23 lung): 75 µM and 61.9 µM; GI50 (MDA-N): 12.9 µM; TGI (MDA-N): 25.7 µM and 31.7 µM; GI50 (SNB-19 CNS): > 75 µM; TGI (SNB-19 CNS): > 75 µM and 68.1 µM; GI50 (SK-OV-3 ovarian): > 75 µM; TGI (SK-OV-3 ovarian): > 100 µM; GI50 (COLO 205 colon): 24.1 µM; TGI (COLO 205 colon): 75 µM and 63.1 µM; GI50 (HOP-92 NSCLC): 18.4 µM; TGI (HOP-92 NSCLC): 57.9 µM and > 95.9 µM; GI50 (NCI/ADR-RES ovarian): 17.2 µM; TGI (NCI/ADR-RES ovarian): 75 µM and 34.3 µM

Source: PubChem BioAssay (NCI)
